We go through 17 compounds from patent US10206394B2, “Herbicidal compounds” (Syngenta Participations AG, priority 2014, dated 2019).

What all share (assay): Glasshouse assay for herbicidal activity (pre- and post-emergence), percentage phytotoxicity
Holding throughout (type): in vivo

One assay deals with Avena fatua (AVEFA). Conditions: Avena fatua, Rate 250 g/ha, 100%=total damage, 0%=no damage. On the procedure: (§1) Test—Glasshouse Assay for Herbicidal Activity
(§2) Seeds of a variety of monocotyledonous and dicotyledonous test plants are sown in standard soil in pots. The plants are cultivated for one day (for pre-emergence (PRE)) or for about 12 days (for post-emergence (POST)) under controlled conditions in a glasshouse (warm climate species at 24/18° C., cool climate species at 20/16° C., both at day/night; 16 hours light; 65% humidity).
(§3) The test plants are then grown on, in a glasshouse (greenhouse) under controlled conditions (warm climate species at 24/18° C., cool climate species at 20/16° C., both at day/night; 16 hours light; 65% humidity) and are watered twice daily. 15 days after application of the test herbicide (15 DAA) (for post-emergence), and 20 days after application of the test herbicide (20 DAA) (for pre-emergence), the test plants are evaluated visually, and an assessed percentage phytotoxicity score is given for each herbicidal application on each plant species (with 100%=total damage to plant; 0%=no damage to plant).
(§4) The plant species tested are as follows: Alopecurus myosuroides (ALOMY), Avena fatua (AVEFA), Lolium perenne (LOLPE), Echinochloa crus-galli (ECHCG).

For another assay, the system named is Lolium perenne (LOLPE). Conditions: Lolium perenne, Rate 250 g/ha, 100%=total damage, 0%=no damage. On the procedure:
as §1, §2, §3, §4

For assay [1], the system named is Alopecurus myosuroides (ALOMY). The following applies: Alopecurus myosuroides, Rate 250 g/ha, 100%=total damage, 0%=no damage. On the procedure: as §1, §2, §3, §4
Assay [2] has as its system Echinochloa crus-galli (ECHCG). The following applies: Echinochloa crus-galli, Rate 250 g/ha, 100%=total damage, 0%=no damage. How it is done:
as §1, §2, §3, §4

[3] abbreviates: post-emergence, 360 h, post-emergence, assessed visually 15 DAA, read-out: Post-emergence herbicidal activity (percentage phytotoxicity) AVEFA POST.
Setting [4] is: pre-emergence, 480 h, pre-emergence, assessed visually 20 DAA, read-out: Pre-emergence herbicidal activity (percentage phytotoxicity) AVEFA PRE.
[5] abbreviates: post-emergence, 360 h, post-emergence, assessed visually 15 DAA, read-out: Post-emergence herbicidal activity (percentage phytotoxicity) LOLPE POST.
The mark [6] stands for this setting: pre-emergence, 480 h, pre-emergence, assessed visually 20 DAA, read-out: Pre-emergence herbicidal activity (percentage phytotoxicity) LOLPE PRE.
Where [7] appears, read: post-emergence, 360 h, post-emergence, assessed visually 15 DAA, read-out: Post-emergence herbicidal activity (percentage phytotoxicity) ALOMY POST.
The mark [8] stands for this setting: pre-emergence, 480 h, pre-emergence, assessed visually 20 DAA, read-out: Pre-emergence herbicidal activity (percentage phytotoxicity) ALOMY PRE.
Setting [9] is: post-emergence, 360 h, post-emergence, assessed visually 15 DAA, read-out: Post-emergence herbicidal activity (percentage phytotoxicity) ECHCG POST.
The mark [10] stands for this setting: pre-emergence, 480 h, pre-emergence, assessed visually 20 DAA, read-out: Pre-emergence herbicidal activity (percentage phytotoxicity) ECHCG PRE.

Like-named read-outs stand apart in the source and are kept apart here.

Consider `C#CCNC(=O)CC1CC(=O)C(c2c(C)cc(C#CC)cc2CC)C1=O` (centres unmarked) [Compound A68], for which the pest or weed control at 250 g/ha with Avena fatua (AVEFA) (setting [3]) turned out to be 100%; in the assay on Avena fatua (AVEFA) (setting [4]) it was 100%; with Lolium perenne (LOLPE) (setting [5]), 100%; in the assay on Lolium perenne (LOLPE) (setting [6]), 100%; in assay [1] (setting [7]), 90%; in assay [1] (setting [8]), 70%. Further, the pest or weed control at 250 g/ha in assay [2] (setting [9]) and in assay [2] (setting [10]) was 100% throughout.

With `C#CCNC(=O)CC1CC(=O)C(c2c(C)cc(-c3ncc(Cl)cc3F)cc2C)C1=O` (centres unmarked) [Compound A69], the pest or weed control at 250 g/ha (in the assay with Avena fatua (AVEFA) (setting [3]); in the assay on Avena fatua (AVEFA) (setting [4]); in the assay on Lolium perenne (LOLPE) (setting [5]); with Lolium perenne (LOLPE) (setting [6]); in assay [1] (setting [7]); in assay [1] (setting [8])) was 100% throughout. Moreover, the pest or weed control at 250 g/ha in assay [2] (setting [9]) and in assay [2] (setting [10]) was 100% in each case.

Take `Cc1cc(-n2cc(Cl)cn2)cc(C)c1C1C(=O)CC(CC(=O)NCc2ccccn2)C1=O` (centres unmarked) [Compound A71]: the pest or weed control at 250 g/ha came out at 90% in the assay with Avena fatua (AVEFA) (setting [3]); 80% in the assay with Avena fatua (AVEFA) (setting [4]); 70% in the assay on Lolium perenne (LOLPE) (setting [5]); 60% in the assay with Lolium perenne (LOLPE) (setting [6]); 100% in assay [1] (setting [7]); 80% in assay [1] (setting [8]). Also, the pest or weed control at 250 g/ha worked out at 100% in assay [2] (setting [9]) and 90% in assay [2] (setting [10]).

For `Cc1cc(-n2cc(Cl)cn2)cc(C)c1C1C(=O)CC(CC(=O)NCC(C)C)C1=O` (centres unmarked) [Compound A72], the pest or weed control at 250 g/ha is 90% in the assay on Avena fatua (AVEFA) (setting [3]); 90% in the assay on Avena fatua (AVEFA) (setting [4]); 80% in the assay on Lolium perenne (LOLPE) (setting [5]); 90% in the assay with Lolium perenne (LOLPE) (setting [6]); 90% in assay [1] (setting [7]); 90% in assay [1] (setting [8]). Besides, the pest or weed control at 250 g/ha in assay [2] (setting [9]) worked out at 90%; in assay [2] (setting [10]), 100%.

On to `Cc1cc(-n2cc(Cl)cn2)cc(C)c1C1C(=O)CC(CC(=O)NC(C)C)C1=O` (centres unmarked) [Compound A74], for which the pest or weed control at 250 g/ha with Avena fatua (AVEFA) (setting [3]) stood at 100%; with Avena fatua (AVEFA) (setting [4]), 90%; with Lolium perenne (LOLPE) (setting [5]), 90%; in the assay with Lolium perenne (LOLPE) (setting [6]), 90%; in assay [1] (setting [7]), 100%; in assay [1] (setting [8]) it was 100%. The pest or weed control at 250 g/ha in assay [2] (setting [9]) and in assay [2] (setting [10]) was 100% each time.

`Cc1cc(-n2cc(Cl)cn2)cc(C)c1C1C(=O)CC(CC(=O)NC2CC2)C1=O` (centres unmarked) [Compound A75]: the pest or weed control at 250 g/ha with Avena fatua (AVEFA) (setting [3]) stood at 100%; in the assay on Avena fatua (AVEFA) (setting [4]) it was 90%; in the assay on Lolium perenne (LOLPE) (setting [5]) it was 90%; with Lolium perenne (LOLPE) (setting [6]), 90%; in assay [1] (setting [7]), 100%; in assay [1] (setting [8]) it was 100%. Also, the pest or weed control at 250 g/ha in assay [2] (setting [9]) and in assay [2] (setting [10]) was 100% throughout.

Turning to `C=CCCNC(=O)CC1CC(=O)C(c2c(C)cc(-n3cc(Cl)cn3)cc2C)C1=O` (centres unmarked) [Compound A76], the pest or weed control at 250 g/ha was 90% in the assay with Avena fatua (AVEFA) (setting [3]); 90% in the assay on Avena fatua (AVEFA) (setting [4]); 80% in the assay with Lolium perenne (LOLPE) (setting [5]); 90% with Lolium perenne (LOLPE) (setting [6]); 100% in assay [1] (setting [7]); 90% in assay [1] (setting [8]). The pest or weed control at 250 g/ha in assay [2] (setting [9]) and in assay [2] (setting [10]) was 100% in each case.

As for `COCCNC(=O)CC1CC(=O)C(c2c(C)cc(-n3cc(Cl)cn3)cc2C)C1=O` (centres unmarked) [Compound A77], the pest or weed control at 250 g/ha in the assay with Avena fatua (AVEFA) (setting [3]) turned out to be 90%; with Avena fatua (AVEFA) (setting [4]), 80%; in the assay on Lolium perenne (LOLPE) (setting [5]), 80%; with Lolium perenne (LOLPE) (setting [6]), 80%; in assay [1] (setting [7]) it was 90%; in assay [1] (setting [8]), 80%. Moreover, the pest or weed control at 250 g/ha in assay [2] (setting [9]) and in assay [2] (setting [10]) was 100% throughout.

`CC#Cc1cc(C)c(C2C(=O)CC(CC(=O)NCC#N)C2=O)c(C)c1` (centres unmarked) [Compound A78]: the pest or weed control at 250 g/ha in the assay with Avena fatua (AVEFA) (setting [3]) came to 40%; with Avena fatua (AVEFA) (setting [4]), 30%; in the assay with Lolium perenne (LOLPE) (setting [5]), 30%; with Lolium perenne (LOLPE) (setting [6]), 20%; in assay [1] (setting [7]) it was 80%; in assay [1] (setting [8]), 10%. Also, the pest or weed control at 250 g/ha in assay [2] (setting [9]) worked out at 100%; in assay [2] (setting [10]), 60%.

Turning to `CC#Cc1cc(C)c(C2C(=O)CC(CC(=O)N(C)CCC)C2=O)c(CC)c1` (centres unmarked) [Compound A79], the pest or weed control at 250 g/ha (in the assay with Avena fatua (AVEFA) (setting [3]); with Avena fatua (AVEFA) (setting [4]); in the assay on Lolium perenne (LOLPE) (setting [5]); in the assay on Lolium perenne (LOLPE) (setting [6]); in assay [1] (setting [7]); in assay [1] (setting [8])) was 100% each time. The pest or weed control at 250 g/ha in assay [2] (setting [9]) and in assay [2] (setting [10]) was 100% in each case.

In the case of `CC#Cc1cc(C)c(C2C(=O)CC(CC(=O)NC3CCC3)C2=O)c(C)c1` (centres unmarked) [Compound A81], the pest or weed control at 250 g/ha amounted to 100% in the assay with Avena fatua (AVEFA) (setting [3]); 100% with Avena fatua (AVEFA) (setting [4]); 90% in the assay on Lolium perenne (LOLPE) (setting [5]); 100% in the assay on Lolium perenne (LOLPE) (setting [6]); 90% in assay [1] (setting [7]); 100% in assay [1] (setting [8]). Further, the pest or weed control at 250 g/ha in assay [2] (setting [9]) and in assay [2] (setting [10]) was 100% in each case.

`Cc1cc(C)c(C2C(=O)CC(CC(=O)NC3(C#N)CC3)C2=O)c(C)c1` (centres unmarked) [Compound A82]: the pest or weed control at 250 g/ha with Avena fatua (AVEFA) (setting [3]) amounted to 10%; in the assay with Lolium perenne (LOLPE) (setting [5]), 30%; in assay [1] (setting [7]) it was 10%; in assay [2] (setting [9]), 30%.

Take `Cc1cc(C)c(C2C(=O)CC(CC(=O)NCC#N)C2=O)c(C)c1` (centres unmarked) [Compound A83]: the pest or weed control at 250 g/ha in the assay with Avena fatua (AVEFA) (setting [3]) came out at 10%; with Lolium perenne (LOLPE) (setting [5]) it was 30%; in assay [1] (setting [7]), 50%; in assay [2] (setting [9]) it was 70%.

Turning to `Cc1cc(C)c(C2C(=O)CC(CC(=O)NCc3cc(C)nn3C)C2=O)c(C)c1` (centres unmarked) [Compound A84], the pest or weed control at 250 g/ha with Avena fatua (AVEFA) (setting [3]) turned out to be 20%; in the assay on Avena fatua (AVEFA) (setting [4]) it was 0%; in the assay with Lolium perenne (LOLPE) (setting [5]), 20%; in the assay on Lolium perenne (LOLPE) (setting [6]), 10%; in assay [1] (setting [7]) it was 60%; in assay [1] (setting [8]), 40%. The results for the pest or weed control at 250 g/ha in assay [2] (setting [9]) and in assay [2] (setting [10]) were 70% and 0%, respectively.

Regarding `Cc1cc(C)c(C2C(=O)CC(CC(=O)NCCC#N)C2=O)c(C)c1` (centres unmarked) [Compound A86], the pest or weed control at 250 g/ha came to 40% in the assay on Avena fatua (AVEFA) (setting [3]); 0% in the assay with Avena fatua (AVEFA) (setting [4]); 50% with Lolium perenne (LOLPE) (setting [5]); 10% in the assay with Lolium perenne (LOLPE) (setting [6]); 30% in assay [1] (setting [7]); 0% in assay [1] (setting [8]). Further, the results for the pest or weed control at 250 g/ha in assay [2] (setting [9]) and in assay [2] (setting [10]) were 80% and 20%, respectively.

Take `COCCNC(=O)CC1CC(=O)C(c2c(C)cc(-c3ncc(F)cn3)cc2C)C1=O` (centres unmarked) [Compound A87]: the pest or weed control at 250 g/ha in the assay with Avena fatua (AVEFA) (setting [3]) worked out at 100%; in the assay with Avena fatua (AVEFA) (setting [4]), 90%; in the assay on Lolium perenne (LOLPE) (setting [5]), 80%; in the assay on Lolium perenne (LOLPE) (setting [6]), 80%; in assay [1] (setting [7]) it was 100%; in assay [1] (setting [8]) it was 80%. Further, the figures for the pest or weed control at 250 g/ha in assay [2] (setting [9]) and in assay [2] (setting [10]) were 100% and 90%, respectively.

Take `Cc1cccc(CNC(=O)CC2CC(=O)C(c3c(C)cc(C)cc3C)C2=O)c1` (centres unmarked) [Compound A88]: the pest or weed control at 250 g/ha in the assay with Avena fatua (AVEFA) (setting [3]) was 10%; in the assay on Avena fatua (AVEFA) (setting [4]), 0%; in the assay on Lolium perenne (LOLPE) (setting [5]), 100%; in the assay with Lolium perenne (LOLPE) (setting [6]) it was 100%; in assay [1] (setting [7]), 70%; in assay [1] (setting [8]), 90%. The pest or weed control at 250 g/ha turned out to be 80% in assay [2] (setting [9]) and 70% in assay [2] (setting [10]).
